For 16 molecules, GI50 and IC50 results are on record in patent publication US20230183243A1, “HETEROARYL DERIVATIVES AND PHARMACEUTICAL COMPOSITION COMPRISING SAME AS ACTIVE INGREDIENT” (VORONOI INC., priority 2019, published 2023).

Structures are written as SMILES.

For assay [1], the system named is MDA-MB-231 cells. Nature of the assay: Inhibition of proliferation of triple-negative breast cancer cells, CellTiter-Glo. As to conditions: Homo sapiens, 120 h; MDA-MB-231, cultured for 5 days. It counts as cell-based. The method in brief: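 MDA-MB-231 cells pre-cultured 24 h (5% CO2, 37 °C), then exposed to compound for 5 days at 12 three-fold dilutions, final 10 μM to 0.05 nM. Viability read by CellTiter-Glo luminescence after 10 min at 37 °C; growth inhibition calculated relative to untreated solvent-control cells.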
(Cellular ATP, detected with luciferase, serves as a proxy for viable cell number.)

Assay [2] addresses T1, TTK (Homo sapiens, UniProt P33981).
T1 sequence (P33981 1-857): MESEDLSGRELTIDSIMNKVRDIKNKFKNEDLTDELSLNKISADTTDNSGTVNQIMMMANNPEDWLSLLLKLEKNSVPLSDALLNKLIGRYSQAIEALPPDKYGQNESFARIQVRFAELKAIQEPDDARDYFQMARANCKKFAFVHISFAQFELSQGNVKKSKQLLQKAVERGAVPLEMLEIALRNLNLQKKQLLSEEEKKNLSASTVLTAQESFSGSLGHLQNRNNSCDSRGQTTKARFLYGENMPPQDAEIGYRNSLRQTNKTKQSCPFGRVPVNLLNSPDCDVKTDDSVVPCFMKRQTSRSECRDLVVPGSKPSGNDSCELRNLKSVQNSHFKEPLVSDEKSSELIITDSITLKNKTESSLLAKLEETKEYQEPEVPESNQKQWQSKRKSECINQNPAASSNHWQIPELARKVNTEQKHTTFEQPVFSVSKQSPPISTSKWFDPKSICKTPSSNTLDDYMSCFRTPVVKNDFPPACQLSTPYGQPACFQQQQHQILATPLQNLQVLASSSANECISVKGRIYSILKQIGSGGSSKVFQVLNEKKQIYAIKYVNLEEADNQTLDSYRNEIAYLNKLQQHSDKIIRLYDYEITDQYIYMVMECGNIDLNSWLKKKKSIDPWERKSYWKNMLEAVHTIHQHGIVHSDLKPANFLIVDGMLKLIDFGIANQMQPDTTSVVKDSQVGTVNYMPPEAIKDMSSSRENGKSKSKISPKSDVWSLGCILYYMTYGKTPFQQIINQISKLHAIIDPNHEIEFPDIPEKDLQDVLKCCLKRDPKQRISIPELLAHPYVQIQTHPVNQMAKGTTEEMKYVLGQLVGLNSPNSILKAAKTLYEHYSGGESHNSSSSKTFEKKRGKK
Kind of assay: TTK enzyme activity, ADP-Glo kinase assay. It counts as biochemical. Set-up: purchased SignalChem T20-10G. Conditions: purified human TTK, ATP 10 μM, 25° C., 2 hours. The method in brief:
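ADP-Glo read-out; percent inhibition at each compound concentration was relative to the solvent-only control. The reactions contained 25 ng enzyme, 0.2 μg substrate and 10 μM ATP in 40 mM Tris-HCl pH 7.4 with 20 mM MgCl2, 0.5 mg/mL BSA and 50 μM DTT, and ran 2 h at 25 °C.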
(In general: ADP-Glo turns the ADP formed in a reaction into a luminescent signal.)

The subject of assay [3] is SHP-77. Kind of assay: Inhibition of proliferation of small cell lung cancer cells, CellTiter-Glo. As to conditions: Homo sapiens, SHP77, 120 h; SHP-77, cultured for 5 days. It counts as cell-based. The protocol: Specifically, the following test was performed to evaluate the inhibitory activity of the compound according to the present invention against the cell proliferation in the SCLC cells.
To check an inhibitory ability of cell growth in one SCLC cell line, a test was performed as follows. Cells were seeded in 180 μL of a culture broth at a density of 2,000 to 3,000 cells/well in a white clear bottom 96-well plate (Corning) according to the growth ability of each cell, and then cultured for 24 hours under conditions of 5% CO2 and 37° C. Thereafter, the compound was prepared by diluting a 10 mM stock solution three-fold with 100% DMSO at a total of 12 concentrations so that a peak concentration of the compound was in a range of 10 mM to 0.05 μM, and the diluted compound was then diluted in each cell culture medium so that a final concentration of the compound was in a range of 100 μM to 0.5 nM. 20 μL of a diluted solution diluted with a medium was added to the cell solution in which cells were seeded in the 96-well plate on the previous day so that a final concentration of the diluted solution was in a range of 10 μM to 0.05 nM. Each of the cells was cultured for 5 days. To check cell viability, a mixture provided in aCellTiter-Glo® Luminescent Cell Viability Assay Kit (Promega) was added to each of the cultured cell media, and cultured for another 10 minutes under a condition of 37° C. Then, a degree of luminescence (fluorescence) was measured. A degree of inhibition of the cell growth according to the treatment concentration of each of the compounds was calculated based on the fluorescence of the solvent control cells which were not treated with the compound. In this case, the concentration of each of the compounds inhibiting 50% of the cell growth was determined to be a GI50 (nM) value, and calculated using Prism (Version 7.01; GraphPad) software.

Regarding `COc1cc(-c2ccnn2C)c(F)cc1Nc1nc(NC2CCCCC2)c2c(C#N)c[nH]c2n1` [Example 105, 4-(cyclohexylamino)-2-((5-fluoro-2-methoxy-4-(1-methyl-1H-pyrazol-5-yl)phenyl)amino)-7H-pyrrolo[2,3-d] pyrimidine-5-carbonitrile], the GI50 in assay [1] and in assay [3] was 100 to 1000 nM in each case. In addition, the IC50 – broadly, the concentration that gives 50% inhibition – in assay [2] was in the range of 50 to 200 nM.

In the case of `COc1cc(-c2ccnn2C)ccc1Nc1nc(NC2CCOCC2)c2c(C(F)(F)F)c[nH]c2n1` [Example 106, N^2-(2-methoxy-4-(1-methyl-1H-pyrazol-5-yl)phenyl)-N^4-(tetrahydro-2H-pyran-4-yl)-5-(trifluoromethy1)-7H-pyrrolo[2,3-d] pyrimidine-2,4-diamine], the GI50 in assay [1] and in assay [3] was < 100 nM throughout. The IC50 in assay [2] fell in the range of 50 to 200 nM.

Consider `Cn1nccc1-c1ccc(Nc2nc(NC3CCOCC3)c3c(C(F)(F)F)c[nH]c3n2)c2c1OCCO2` [Example 107, N^2-(8-(1-methyl-1H-pyrazol-5-yl)-2,3-dihydrobenzo[b][1,4]dioxin-5-yl)-N^4-(tetrahydro-2H-pyran-4-yl)-5-(trifluoromethyl)-7H-pyrrolo[2,3-d] pyrimidine-2,4-diamine], for which the GI50 in assay [1] and in assay [3] was < 100 nM each time. This molecule also yielded an IC50 in assay [2] of 50 to 200 nM.

Turning to `O=C1CCCN1c1ccc(Nc2nc(NC3CCOCC3)c3c(C(F)(F)F)c[nH]c3n2)c2c1OCCO2` [Example 108, 1-(8-((4-((tetrahydro-2H-pyran-4-yl)amino)-5-(trifluoromethyl)-7H-pyrrolo[2,3-d]pyrimidin-2-yl)amino)-2,3-dihydrobenzo[b][1,4]dioxin-5-yl)pyrrolidin-2-one], the 50% growth inhibitory concentration (GI50) in assay [1] and in assay [3] was 100 to 1000 nM throughout. In addition, the IC50 in assay [2] is < 50 nM.

Turning to `Cn1nccc1-c1ccc(Nc2nc(NC3CCOC(C)(C)C3)c3c(C#N)c[nH]c3n2)c2c1OCCO2` (stereo not drawn) [Example 109, 4-((2,2-dimethyltetrahydro-2H-pyran-4-yl)amino)-2-((8-(1-methyl-1H-pyrazol-5-yl)-2,3-dihydrobenzo[b][1,4]dioxin-5-yl)amino)-7H-pyrrolo[2,3-d] pyrimidine-5-carbonitrile], the GI50 in assay [1] and in assay [3] was < 100 nM throughout. Also, the IC50 in assay [2] was < 50 nM.

Turning to `COc1cc(-c2ccnn2C)ccc1Nc1nc(NC2CCC(F)(F)C2)c2c(C#N)c[nH]c2n1` (stereo not drawn) [Example 110, 4-((3,3-difluorocyclopentyl)amino)-2-((2-methoxy-4-(l-methyl-1H-pyrazol-5-yl)phenyl)amino)-7H-pyrrolo[2,3-d] pyrimidine-5-carbonitrile], the GI50 in assay [1] and in assay [3] was < 100 nM throughout. In assay [2], the IC50 is < 50 nM.

In the case of `COc1cc(-c2ccnn2C)ccc1Nc1nc(C2CC2)c2c(C#N)c[nH]c2n1` [Example 111, 4-cyclopropyl-2-((2-methoxy-4-(1-methyl-1H-pyrazol-5-yl)phenyl)amino)-7H-pyrrolo[2,3-d] pyrimidine-5-carbonitrile], the GI50 in assay [1] and in assay [3] was < 100 nM in each case. In assay [2], the IC50 was < 50 nM.

In the case of `Cn1nccc1-c1ccc(Nc2nc(C3CC3)c3c(C#N)c[nH]c3n2)c2c1OCCO2` [Example 112, 4-cyclopropyl-2-((8-(1-methyl-1H-pyrazol-5-yl)-2,3-dihydrobenzo[b][1,4]dioxin-5-yl)amino)-7H-pyrrolo[2,3-d] pyrimidine-5-carbonitrile], the values for the GI50 in assay [1] and in assay [3] were 100 to 1000 nM and < 100 nM, respectively. In assay [2], the IC50 is < 50 nM.

For `COc1cc(-c2ccnn2C)ccc1Nc1nc(NC2CCCC2)c2cc[nH]c2n1` [Example 113, N^4-cyclopentyl-N^2-(2-methoxy-4-(1-methyl-1H-pyrazol-5-yl)phenyl)-7H-pyrrolo[2,3-d] pyrimidine-2,4-diamine], the GI50 in assay [1] and in assay [3] was 100 to 1000 nM each time. The molecule also had an IC50 in assay [2] of 50 to 200 nM.

With `Cn1nccc1-c1ccc(Nc2nc(NC3CCCC3)c3cc[nH]c3n2)c2c1OCCO2` [Example 114, N^4-cyclopentyl-N^2-(8-(1-methyl-1H-pyrazol-5-yl)-2,3-dihydrobenzo[b][1,4]dioxin-5-yl)-7H-pyrrolo[2,3-d] pyrimidine-2,4-diamine], the GI50 in assay [1] and in assay [3] was 100 to 1000 nM each time. In assay [2], the IC50 is < 50 nM.

With `COc1cc(-c2ccnn2C)ccc1Nc1nc(NC2CCOC(C)(C)C2)c2c(C#N)c[nH]c2n1` (stereo not drawn) [Example 115, 4-((2,2-dimethyltetrahydro-2H-pyran-4-yl)amino)-2-((2-methoxy-4-(1-methyl-1H-pyrazol-5-yl)phenyl)amino)-7H-pyrrolo[2,3-d] pyrimidine-5-carbonitrile], the GI50 in assay [1] and in assay [3] was < 100 nM throughout. For the same molecule, the IC50 in assay [2] was < 50 nM.

Regarding `Cn1nccc1-c1ccc(Nc2nc(NC3CCC(F)(F)C3)c3c(C#N)c[nH]c3n2)c2c1OCCO2` (stereo not drawn) [Example 116, 4-((3,3-difluorocyclopentyl)amino)-2-((8-(1-methyl-1H-pyrazol-5-yl)-2,3-dihydrobenzo[b][1,4]dioxin-5-yl)amino)-7H-pyrrolo[2,3-d] pyrimidine-5-carbonitrile], the GI50 in assay [1] and in assay [3] was < 100 nM each time. Further, the IC50 in assay [2] was < 50 nM.

With `COc1cc(-c2nncn2C)ccc1Nc1nc(NC2CCOCC2)c2c(C(F)(F)F)c[nH]c2n1` [Example 117, N^2-(2-methoxy-4-(4-methyl-4H-1,2,4-triazol-3-yl)phenyl)-N^4-(tetrahydro-2H-pyran-4-yl)-5-(trifluoromethyl)-7H-pyrrolo[2,3-d] pyrimidine-2,4-diamine], the concentration for 50% growth inhibition (GI50) in assay [1] and in assay [3] was < 100 nM each time. Further, in assay [2], the IC50 is < 50 nM.

`COc1cc(-c2cnn(C)c2)ccc1Nc1nc(NC2CCOCC2)c2c(C(F)(F)F)c[nH]c2n1` [Example 118, N^2-(2-methoxy-4-(1-methyl-1H-pyrazol-4-yl)phenyl)-N^4-(tetrahydro-2H-pyran-4-yl)-5-(trifluoromethy1)-7H-pyrrolo[2,3-d] pyrimidine-2,4-diamine]: the GI50 in assay [1] and in assay [3] was < 100 nM each time. In assay [2], the IC50 was < 50 nM.

On to `COc1cc(Nc2nc(NC3CCOCC3)c3c(C#N)c[nH]c3n2)ccc1-c1ccnn1C` [Example 119, 2-((3-methoxy-4-(1-methyl-1H-pyrazol-5-yl)phenyl)amino)-4-((tetrahydro-2H-pyran-4-yl)amino)-7H-pyrrolo[2,3-d] pyrimidine-5-carbonitrile], for which the GI50 in assay [1] and in assay [3] was < 100 nM in each case. The IC50 in assay [2] was < 50 nM.

In the case of `COc1cc(Nc2nc(NC3CCCC3)c3c(C#N)c[nH]c3n2)ccc1-c1ccnn1C` [Example 120, 4-(cyclopentylamino)-2-((3-methoxy-4-(1-methyl-1H-pyrazol-5-yl)phenyl)amino)-7H-pyrrolo[2,3-d] pyrimidine-5-carbonitrile], the GI50 in assay [1] and in assay [3] was 100 to 1000 nM throughout. Besides, the IC50 in assay [2] was in the range of 50 to 200 nM.
